The source of these data is BindingDB's records for doi:10.7270/Q2F18X40 (Nmmlsc, 2009).

pEC50: −log10 of the molar value.

The assay concerns the target Ras-related protein Rab-7a (Canis lupus familiaris, UniProt P18067). Briefly: Rab7 GTP binding inhibitors, analog potency, SAR follow-up, biochemical, oxadiazole analogs, multiplex bead flow cytometry (AID 2031). Particulars: inactive by the depositor's call. (In general: A flow cytometer gives signals particle by particle.)

Ras-related protein Rab-7a, sequence (P18067 whole entry): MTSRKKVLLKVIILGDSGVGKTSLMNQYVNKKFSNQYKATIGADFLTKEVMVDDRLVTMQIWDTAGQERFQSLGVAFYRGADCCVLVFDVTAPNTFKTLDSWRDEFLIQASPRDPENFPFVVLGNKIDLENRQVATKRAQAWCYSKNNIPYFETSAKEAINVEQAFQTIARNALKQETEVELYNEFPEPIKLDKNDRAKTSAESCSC

As to `COc1cccc(-c2noc(CCC(=O)N3CCN(c4cc(C)ccc4C)CC3)n2)c1`, the pEC50 – broadly, the negative decadic logarithm of the EC50, by convention in mol/L – was 5.46.
The same measure for `Cc1ccc(C)c(N2CCN(C(=O)CCc3nc(-c4ccccc4C)no3)CC2)c1`: 5.26; for `COc1ccc(-c2noc(CCC(=O)N3CCN(c4cccc(Cl)c4)CC3)n2)cc1`: 4.51.
The same measure for `Cc1ccc(C)c(N2CCN(C(=O)CCc3nc(-c4ccccc4C(F)(F)F)no3)CC2)c1`: 4.52; for `COc1ccc(-c2noc(CCC(=O)N3CCN(c4ccccc4C)CC3)n2)cc1`: 4.52.
The same measure for `COc1ccc(-c2ccc(CCC(=O)N3CCN(c4cc(C)ccc4C)CC3)s2)cc1`: 4.52; for `COc1ccc(-c2noc(CCC(=O)N3CCN(c4cccc(C)c4C)CC3)n2)cc1` [1-[4-(2,3-dimethylphenyl)-1-piperazinyl]-3-[3-(4-methoxyphenyl)-1,2,4-oxadiazol-5-yl]-1-propanone]: 5.81; for `COc1ccc(-c2noc(CCC(=O)N3CCN(c4cc(C)ccc4C)CC3)n2)cc1` [1-[4-(2,5-dimethylphenyl)-1-piperazinyl]-3-[3-(4-methoxyphenyl)-1,2,4-oxadiazol-5-yl]-1-propanone]: 5.62.
`Cc1ccc(-c2noc(CCC(=O)N3CCN(c4cc(C)ccc4C)CC3)n2)cc1` [1-[4-(2,5-dimethylphenyl)-1-piperazinyl]-3-[3-(4-methylphenyl)-1,2,4-oxadiazol-5-yl]-1-propanone] had a pEC50 of 5.36.
On to `Cc1ccc(C)c(N2CCN(C(=O)CCc3nc(-c4ccc(C(F)(F)F)cc4)no3)CC2)c1` [1-[4-(2,5-dimethylphenyl)-1-piperazinyl]-3-[3-[4-(trifluoromethyl)phenyl]-1,2,4-oxadiazol-5-yl]-1-propanone], for which the pEC50 was 4.52.
Take `COc1ccc(-c2noc(CCCCC(=O)N3CCN(c4cc(C)ccc4C)CC3)n2)cc1` [1-[4-(2,5-dimethylphenyl)-1-piperazinyl]-5-[3-(4-methoxyphenyl)-1,2,4-oxadiazol-5-yl]-1-pentanone]: the pEC50 was 4.52.
On to `COc1ccc(-c2noc(CC(=O)N3CCN(c4cc(C)ccc4C)CC3)n2)cc1` [1-[4-(2,5-dimethylphenyl)piperazin-1-yl]-2-[3-(4-methoxyphenyl)-1,2,4-oxadiazol-5-yl]ethanone], for which the negative logarithm of the EC50 (pEC50) is 4.52.
With `Cc1cccc(-c2noc(CCC(=O)N3CCN(c4cc(C)ccc4C)CC3)n2)c1` [1-[4-(2,5-dimethylphenyl)piperazin-1-yl]-3-[3-(3-methylphenyl)-1,2,4-oxadiazol-5-yl]propan-1-one], the pEC50 was 5.99.
For the compound `COc1ccc(-c2cc(CCC(=O)N3CCN(c4cc(C)ccc4C)CC3)on2)cc1` [1-[4-(2,5-dimethylphenyl)piperazin-1-yl]-3-[3-(4-methoxyphenyl)-1,2-oxazol-5-yl]propan-1-one], the negative-log EC50 (pEC50) is 6.52.
The result for `COc1ccc(-c2coc(CCC(=O)N3CCN(c4cc(C)ccc4C)CC3)n2)cc1` [1-[4-(2,5-dimethylphenyl)piperazin-1-yl]-3-[4-(4-methoxyphenyl)-1,3-oxazol-2-yl]propan-1-one] reads 4.52; that for `COc1ccc(-c2ccc(CCC(=O)N3CCN(c4cc(C)ccc4C)CC3)[nH]2)cc1` [1-[4-(2,5-dimethylphenyl)piperazin-1-yl]-3-[5-(4-methoxyphenyl)-1H-pyrrol-2-yl]propan-1-one], 4.52.
Compound `COc1ccc(-c2noc(CCC(=O)N3CCN(c4ccccc4Cl)CC3)n2)cc1` [1-[4-(2-chlorophenyl)piperazin-1-yl]-3-[3-(4-methoxyphenyl)-1,2,4-oxadiazol-5-yl]propan-1-one] showed a pEC50 of 5.64.
Compound `COc1ccc(-c2noc(CCC(=O)N3CCN(c4ccccc4F)CC3)n2)cc1` [1-[4-(2-fluorophenyl)piperazin-1-yl]-3-[3-(4-methoxyphenyl)-1,2,4-oxadiazol-5-yl]propan-1-one] gave a pEC50 of 6.20.
The same measure for `COc1ccc(-c2noc(CCC(=O)N3CCN(c4cccc(Br)c4)CC3)n2)cc1` [1-[4-(3-bromophenyl)-1-piperazinyl]-3-[3-(4-methoxyphenyl)-1,2,4-oxadiazol-5-yl]-1-propanone]: 4.52.
The result for `COc1ccc(-c2noc(CCC(=O)N3CCN(c4cccc(F)c4)CC3)n2)cc1` [1-[4-(3-fluorophenyl)piperazin-1-yl]-3-[3-(4-methoxyphenyl)-1,2,4-oxadiazol-5-yl]propan-1-one] reads 4.52; that for `COc1ccc(-c2noc(CCC(=O)N3CCN(c4ccc(Br)cc4)CC3)n2)cc1` [1-[4-(4-bromophenyl)piperazin-1-yl]-3-[3-(4-methoxyphenyl)-1,2,4-oxadiazol-5-yl]propan-1-one], 4.52; that for `COc1ccc(-c2noc(CCC(=O)N3CCN(c4cccc(C(F)(F)F)c4)CC3)n2)cc1` [1-{3-[3-(4-methoxyphenyl)-1,2,4-oxadiazol-5-yl]propanoyl}-4-[3-(trifluoromethyl)phenyl]piperazine], 4.52.
The result for `Cc1ccc(C)c(N2CCN(C(=O)CCc3nc(-c4ccccc4Br)no3)CC2)c1` [3-[3-(2-bromophenyl)-1,2,4-oxadiazol-5-yl]-1-[4-(2,5-dimethylphenyl)-1-piperazinyl]-1-propanone] reads 5.38; that for `Cc1ccc(C)c(N2CCN(C(=O)CCc3nc(-c4ccccc4Cl)no3)CC2)c1` [3-[3-(2-chlorophenyl)-1,2,4-oxadiazol-5-yl]-1-[4-(2,5-dimethylphenyl)-1-piperazinyl]-1-propanone], 4.52; that for `COc1ccc(-c2noc(CCC(=O)N3CCN(c4ccccc4)CC3)n2)cc1` [3-[3-(4-methoxyphenyl)-1,2,4-oxadiazol-5-yl]-1-(4-phenylpiperazin-1-yl)propan-1-one], 4.52.
Take `COc1ccc(-c2noc(CCC(=O)N3CCN(c4ccccc4OC)CC3)n2)cc1` [3-[3-(4-methoxyphenyl)-1,2,4-oxadiazol-5-yl]-1-[4-(2-methoxyphenyl)-1-piperazinyl]-1-propanone]: the pEC50 is 4.52.
The same measure for `COc1ccc(-c2noc(CCC(=O)N3CCN(c4ccc(OC)cc4)CC3)n2)cc1` [3-[3-(4-methoxyphenyl)-1,2,4-oxadiazol-5-yl]-1-[4-(4-methoxyphenyl)piperazin-1-yl]propan-1-one]: 4.52.
The result for `COc1ccc(-c2noc(CCC(=O)N3CCN(c4ccc(C)cc4)CC3)n2)cc1` [3-[3-(4-methoxyphenyl)-1,2,4-oxadiazol-5-yl]-1-[4-(4-methylphenyl)piperazin-1-yl]propan-1-one] reads 4.52; that for `COc1ccc(-c2noc(CCC(=O)N3CCN(c4ccc(C(F)(F)F)cc4)CC3)n2)cc1` [3-[3-(4-methoxyphenyl)-1,2,4-oxadiazol-5-yl]-1-[4-[4-(trifluoromethyl)phenyl]piperazin-1-yl]propan-1-one], 4.52; that for `COc1ccc(-c2noc(CCC(=O)N3CCN(c4cccc(OC)c4)CC3)n2)cc1` [KUC103349N], 4.52.
The same measure for `COc1ccc(-c2noc(CCCC(=O)N3CCN(c4cc(C)ccc4C)CC3)n2)cc1` [KUC103353N]: 4.84.
Compound `Cc1ccc(C)c(N2CCN(C(=O)CCc3nc(-c4ccc(F)cc4)no3)CC2)c1` [KUC103364N] gave a pEC50 of 6.18.
On to `Cc1ccc(C)c(N2CCN(C(=O)CCc3nc(-c4cccc(F)c4)no3)CC2)c1` [KUC103366N], for which the pEC50 was 5.11.
As for `Cc1ccc(C)c(N2CCN(C(=O)CCc3nc(-c4cccc(Br)c4)no3)CC2)c1` [KUC103367N], the pEC50 was 5.45.
Consider `COc1ccc(-c2noc(CCC(=O)N3CCN(c4ccccc4Br)CC3)n2)cc1` [KUC103370N], for which the pEC50 was 5.65.
The result for `Cc1ccc(C)c(N2CCN(C(=O)CCc3nc(-c4cccc(C(F)(F)F)c4)no3)CC2)c1` [KUC103380N] reads 6.15; that for `COc1ccc(-c2noc(CCC(=O)N3CCN(c4ccc(F)cc4)CC3)n2)cc1` [KUC103398N], 4.52; that for `Cc1ccc(C)c(N2CCN(C(=O)CCc3nc(-c4ccccc4F)no3)CC2)c1` [KUC103401N], 4.52.
The compound `Cc1ccc(C)c(N2CCN(C(=O)CCc3nc(-c4ccc(N(C)C)cc4)no3)CC2)c1` [KUC103409N] gave a pEC50 of 4.52.
`COc1ccc(-c2noc(CCC(=O)N3CCC(c4cc(C)ccc4C)CC3)n2)cc1` [KUC103432N] showed a pEC50 of 5.88.
On to `COc1ccc(-c2ccc(CCC(=O)N3CCN(c4cc(C)ccc4C)CC3)o2)cc1` [KUC103447N], for which the pEC50 is 4.52.
For `Cc1ccc(C)c(N2CCN(C(=O)CCc3nc(-c4ccccc4)no3)CC2)c1` [UNM-0000306070], the pEC50 was 5.93.
On to `COc1ccccc1-c1noc(CCC(=O)N2CCN(c3cc(C)ccc3C)CC2)n1` [UNM-0000306071], for which the pEC50 was 4.52.
The result for `Cc1ccc(C)c(N2CCN(C(=O)CCc3nc(-c4ccc(Br)cc4)no3)CC2)c1` [UNM-0000306072] reads 5.80; that for `COc1ccc(-c2noc(CCC(=O)N3CCN(c4ccccc4C(F)(F)F)CC3)n2)cc1` [UNM-0000306082], 5.71; that for `Cc1ccc(C)c(N2CCN(C(=O)CCc3nc(-c4ccc(Cl)cc4)no3)CC2)c1` [UNM-0000306083], 5.54.
The same measure for `Cc1ccc(C)c(N2CCN(C(=O)CCc3nc(-c4cccc(Cl)c4)no3)CC2)c1` [UNM-0000306086]: 4.52; for `COc1ccc(-c2noc(CCC(=O)N3CCN(c4ccc(Cl)cc4)CC3)n2)cc1` [UNM-0000306121]: 4.52; for `COc1ccc(-c2noc(CCC(=O)N3CCN(c4cccc(C)c4)CC3)n2)cc1` [UNM-0000306125]: 4.52.
The same measure for `COc1ccc(-c2cccc(CCC(=O)N3CCN(c4cc(C)ccc4C)CC3)c2)cc1` [UNM-0000306127]: 4.52; for `COc1ccc(-c2cc(CCC(=O)N3CCN(c4cc(C)ccc4C)CC3)[nH]n2)cc1` [UNM-0000306150]: 4.52.
